These results are taken from PMC6513986, “Molecular basis for heat desensitization of TRPV1 ion channels” (Nature Communications, 2019).

For one data set, the target named is mV1_654 (ANAP) (Mus musculus, UniProt Q704Y3, Y654X). As to the kind of experiment: Agonist activation of ANAP-incorporated channel, patch clamp. The data set is classed as cell-based. On the technique in general: The patch-clamp technique gives a direct electrical read-out from membranes.
The target of the next data set is platypus TRPV1 (pV1) (Ornithorhynchus anatinus, UniProt F7A7B4). The experiment in a line: Agonist activation, patch clamp, HEK293T. The data set is classed as cell-based. To be noted: whole-cell, 3 mM.
The next data set has as its target mV1_630 (ANAP) (Mus musculus, UniProt Q704Y3, S630X). As to the kind of experiment: Agonist activation of ANAP-incorporated channel, patch clamp. In kind it is cell-based.
Another data set has as its target mV1_579 (ANAP) (Mus musculus, UniProt Q704Y3, C579X). The description is as above. In kind it is cell-based.
In a further data set the target is pV1_643 (ANAP) (Ornithorhynchus anatinus, UniProt F7A7B4, S634X).
A further data set addresses mV1_651 (ANAP) (Mus musculus, UniProt Q704Y3, T651X). As to the kind of experiment: Agonist activation of ANAP-incorporated channel, patch clamp. The data set is classed as cell-based.
The target in the next data set is pV1_241 (ANAP) (Ornithorhynchus anatinus, UniProt F7A7B4). Described as above. The data set is classed as cell-based, platypus.
The target in another data set is mV1_685 (ANAP) (Mus musculus, UniProt Q704Y3, E685X). Described as above. The data set is classed as cell-based.
The target in a further data set is mV1_241 (ANAP) (Mus musculus, UniProt Q704Y3, K241X). The data set is described as above. In kind it is cell-based.
A further data set addresses mV1_648 (ANAP) (Mus musculus, UniProt Q704Y3, L648X). The data set is described as above. The data set is classed as cell-based.
A short description of data set [1]: Emission peak of free ANAP at different temperatures. The data set is classed as physicochemical. To be noted: n=3. The source says:
ANAP fluorescence was excited by the Ar laser with a 375/28 excitation filter, T400lp dichroic mirror, and 435LP emission filter on an inverted fluorescence microscope (Nikon TE2000-U) using a ×40 oil-immersion objective (numerical aperture (NA) 1.3). Emission spectrum of ANAP was imaged with an Acton SpectraPro 2150i spectrograph in conjunction with an Evolve 512 EMCCD camera. The emission peak value was found by fitting the spectrum with a skewed Gauss distribution.

In the case of `NCCOB(c1ccccc1)c1ccccc1` [2APB, 2-aminoethoxydiphenyl borate], the 2APB activation entry on mV1_654 (ANAP), on mV1_630 (ANAP), on mV1_579 (ANAP), at pV1_643 (ANAP), on mV1_651 (ANAP) and on pV1_241 (ANAP) was “Yes” throughout. In addition, the 2APB activation result on mV1_685 (ANAP), on mV1_241 (ANAP) and at mV1_648 (ANAP) was “Yes” in each case. For the same compound, the figures for the “activation of pV1 by 2-APB” value on platypus TRPV1 (pV1) (listed as 2-APB) and on platypus TRPV1 (pV1) (listed as 2-aminoethoxydiphenyl borate) were “currents elicited” and “directly activated”, respectively.
`CC(=O)c1ccc2cc(NCC(N)C(=O)O)ccc2c1` (stereo not drawn) [free ANAP, 3-(6-acetylnaphthalen-2-ylamino)-2-aminopropanoic acid]: the “change of emission spectrum during heating” value in data set [1] is given as “no change”.
